According to patent US8871741B2, “Inhibition of TNF-α induced activation of NFKB by pentosan polysulfate” (Icahn School of Medicine at Mount Sinai, priority 2010, dated 2014):
“Also recorded” adds a separate entry of the source.

Experiments:
[1] = test system: hepatic lipase; experiment: Post-heparin hepatic lipase activity in WHHL rabbits; format: in vivo, rabbit; conditions: end of treatment period
Procedure: Blood was drawn from rabbits after a 12-hour fast into tubes containing EDTA at the beginning of the study, every two weeks during treatment with the atherogenic diet, and at the end of the study. The total cholesterol and triglyceride concentrations (Sigma) as well as unesterified cholesterol and phospholipids (Wako Chemicals, Richmond, Va.) were determined on plasma samples using enzymatic methods on a Hitachi 911 Autoanalyzer (Boehringer Mannheim). Post-heparin hepatic lipase activity was determined as described (Iverius P H, Brunzell J D. Am J Physiol 1985; 249: E107-E114).

[2] = test system: TIMP-1, -2, and -3; experiment: Reverse zymography of aortic extracts; format: in vivo, rabbit; conditions: PPS-treated WHHL rabbits, 75 days HC-diet
Procedure: (§1) MMP activity in aortic extracts and conditioned media from monocytes was assessed, as previously described (Jacot T A, et al., Lab Invest. 1996; 75:791-79). Briefly, aortic segments were homogenized and extracted in RIPA buffer (25 mM Tris, pH 7.4, 150 mM KCl, 5 mM EDTA, 1% Nonidet P-40, 0.5% sodium deoxycholate, and 0.1% SDS). Insoluble material was precipitated by centrifugation, and soluble extracts were collected and stored at −20° C. for further analysis. For in vitro experiments, cell supernatants were centrifuged to remove cellular debris, and diluted appropriately to normalize for cell number. Aortic extracts and conditioned media were then mixed with sample buffer (1% SDS, 0.08 M Tris pH 6.8, 4% glycerol, and 0.006% bromophenol blue), and loaded onto a 10% gelatin polyacrylamide gel, and processed as described (Jacot T A, et al., Lab Invest. 1996; 75:791-79). For reverse zymography, samples were loaded onto a 15% gelatin polyacrylamide gel containing 0.5% porcine gelatin and 6 μg recombinant gelatinase A, and processed as described (Elliot S J, et al., J Am Soc Nephrol. 1999; 10: 62-68).

[3] = test system: MMP-2; experiment: Zymography of U937 cell supernatants, MMP-2; format: cell-based, human
Procedure: (§2) Human pro-monocytic U937 cells were obtained from American Type Culture Collection (Manassas, Va.) and grown in RPMI medium supplemented with 10% FBS. U937 cells were plated in six-well plates at a density of 5×10^6 cells/ml. The cells were then stimulated with 10 ng/ml TNF-α, in the presence or absence of either increasing concentrations of PPS (10-100 μg/ml) or heparin (100 μg/ml), and incubated at 37° C. for 3 hours. Following stimulation, cells were placed in 0.1% BSA-serum-free medium for 16-18 hours. The media was then collected, centrifuged, and supernatants were stored at −80° C. for the assessment of MMP activity. The cell number was determined by direct cell counting.
as §1

[4] = test system: MMP-2; experiment: Zymography of aortic extracts; format: in vivo, rabbit; conditions: PPS-treated WHHL rabbits, 75 days HC-diet
Procedure: as §1

[5] = test system: MCP-1 and RANTES; experiment: TNFα stimulated MCP-1 and RANTES production by proximal tubular cells, ELISA; format: cell-based, mouse; conditions: PPS 200 μg/ml pretreatment, TNFα 10 ng/ml, p<0.01 vs. TNFα alone
Procedure: A proximal tubular cell line obtained from mice transgenic for SV40 T antigen was grown in DMEM containing 10% FBS. For the measurement of TNFα-stimulated gene expression, 1×10^5 proximal tubular cells were transferred to each well of a 6-well-plate. After placing the cells in 0.1% FBS medium for 24 hours, 10 ng/ml of TNFα was added to test wells. Total RNA was isolated from all wells 4 hours later. MCP-1, RANTES, CXCL1, MIP-2, ICAM-1, and iNOS mRNA levels were determined by real-time PCR as described above and corrected by β-actin mRNA levels. TNFα stimulated MCP-1 and RANTES production and release into the medium was measured in TNFα (10 ng/ml) treated and control cells at 24 hours. The amount of MCP-1 or RANTES in the medium was measured by ELISA (Invitrogen Corporation (Carlsband, Calif.).
To determine the effect of PPS on TNFα induced upregulation of proinflammatory genes, proximal tubular cells were pre-treated with PPS (200 μg/ml) for 1 hour before the addition of TNFα (10 ng/ml). MCP-1, RANTES, CXCL1, MIP-2, ICAM-1, and iNOS mRNA levels were determined 4 hours later by real-time PCR. MCP-1 and RANTES production was also measured.

[6] = test system: MMP-9; experiment: Zymography of U937 cell supernatants, MMP-9; format: cell-based, human; conditions: U937 cells stimulated with 10 ng/ml TNF-α, 100 μg/ml PPS; P<0.01
Procedure: as §2
MMP activity in aortic extracts and conditioned media from monocytes was assessed, as previously described (Jacot T A, et al., Lab Invest. 1996; 75:791-79). Briefly, aortic segments were homogenized and extracted in RIPA buffer (25 mM Tris, pH 7.4, 150 mM KCl, 5 mM EDTA, 1% Nonidet P-40, 0.5% sodium deoxycholate, and 0.1% SDS). Insoluble material was precipitated by centrifugation, and soluble extracts were collected and stored at −20° C. for further analysis. For in vitro experiments, cell supernatants were centrifuged to remove cellular debris, and diluted appropriately to normalize for cell number. […]

[7] = test system: monocytic cells; experiment: Cell viability by trypan blue staining; format: cell-based, human
[8] = test system: TNFα mRNA; experiment: PCR of TNFα mRNA in kidney; format: in vivo, mouse; conditions: PPS treated 22 month-old diabetic mice, up to 40 PCR cycles
Procedure: mRNA levels were corrected by the levels of β-actin or GAPDH mRNA. The expression of TNFα mRNA in kidney was determined by both a real time and a regular PCR using the primer of forward, 5′-[…]-3′ (SEQ ID NO: 17), reverse, 5′-[…]-3′ (SEQ ID NO: 18). GAPDH and β-actin mRNA levels were measured in the same sample.

[9] = test system: NF-κB; experiment: NF-κB luciferase reporter assay in proximal tubular cells; format: cell-based, mouse; conditions: PPS 50-200 μg/ml, TNFα 10 ng/ml
Procedure: To further determine the effect of PPS on NF-κB transcription activity, proximal tubular cells were transfected with a NF-κB reporter in the presence or absence of PPS (50-200 μg/ml) and TNFα (10 ng/ml). Some cells were also transfected with a cDNA expression vector containing constitutively active IκB, dominant negative IKK, or IKK. A β-galactosidase cDNA expression vector was co-transfected with the NF-κB reporter to serve as an internal control for transfection efficiency. Luciferase and β-galactosidase activity were measured using substrate assays. The same amount of DNA (1 μg/well of 24 well plates) was used for each transfection throughout the experiments.

[10] = U937 cells, dose-response experiments

pentosan polysulfate [PPS]
activity of post-heparin hepatic lipase, PPS- versus water-treated [1]: no differences | activity of TIMP-1, -2, and -3 in aortic extracts [2]: marked increase | MMP-2 activity, reduction by PPS treatment ([3]; U937 cells stimulated with 10 ng/ml TNF-α, 100 μg/ml PPS, P<0.05): 37.73%±12.17% | concentration at which the PPS effect on MMP activity was evident [3, 10]: 25 µg/mL | concentration at which the PPS effect on MMP activity was maximal [3, 10]: 75 to 100 µg/mL | MMP-2 activity, decrease by PPS treatment ([3]; unstimulated U937 cells, 100 μg/ml PPS, figure data as percent of control, P<0.01): 45.40%±9.68% | MMP-2 activity in aortic extracts [4]: significantly increased | TNFα stimulated MCP-1 and RANTES protein production [5]: decreased | MMP-9 activity, reduction by PPS treatment [6]: 51.70%±10.77% | effect on cell viability [7]: no effect | TNFα mRNA expression in the kidneys [8]: completely prevented the upregulation; also recorded: absent | TNFα stimulated NF-κB transcriptional activity [9]: dependently decreased
